Reference: ChEMBL document CHEMBL6074651, “Hit-to-lead optimization of 4,5-dihydrofuran-3-sulfonyl scaffold against Leishmania amazonensis. Effect of an aliphatic moiety” (Eur J Med Chem, 2024)

How the values were obtained:
[1] = test system: Leishmania amazonensis; assay: Antileishmanial activity against leishmania amazonensis promastigotes MHOM/BR/77/LTB0016 assessed as parasite growth inhibition incubated for 72 hrs by resazurin dye based analysis; type: functional, organism-based; conditions: MHOM/BR/77/LTB0016, 72 h
[2] = test system: Leishmania amazonensis; assay: Antileishmanial activity against leishmania amazonensis intracellular amastigotes assessed as parasite growth inhibition measured after 72 hrs by hematological dye based microscopic analysis; type: functional, organism-based
[3] = Selectivity index, ratio of CC50 for cytotoxicity against murine peritoneal macrophages assessed as inhibition of cell viability to IC50 for antileishmanial activity against leishmania amazonensis intracellular amastigotes assessed as parasite growth inhibition; type: toxicity, cell-based, Macrophage; conditions: mouse, read-out: Ratio CC50/IC50
[4] = Cytotoxicity against mouse Peritoneal macrophage cell assessed as inhibition of cell viability incubated for 72 hrs by resazurin dye based analysis; type: toxicity; conditions: peritoneal macrophages

SMILES | IC50 [1] [µM] | IC50 [2] [µM] | selectivity ratio [3] | CC50 at 72 h [4] [µM]
CC1(Cc2ccccc2)CC(C(=O)NC2CCCC2)=C(c2ccc(/C(N)=N/O)cc2)O1 (stereo unspecified) | 61.1 | – | – | –
CC1(Cc2ccccc2)CC(C(=O)N2CCOCC2)=C(c2ccc(/C(N)=N/O)cc2)O1 (stereo unspecified) | > 128 | – | – | –
CC1(Cc2ccccc2)CC(S(C)(=O)=O)=C(c2ccc(/C(N)=N/O)cc2)O1 (stereo unspecified) | 91.4 | – | – | –
CCOC(=O)C1=C(c2ccc(/C(N)=N/O)cc2)OC(C)(Cc2ccccc2)C1 (stereo unspecified) | 6.3 | 1.3 | 87.8 | 112
CC1(Cc2ccccc2)CC(C(=O)NCCN2CCCC2)=C(c2ccc(/C(N)=N/O)cc2)O1 (stereo unspecified) | 102 | – | – | –
CCCCNC(=O)C1=C(c2ccc(/C(N)=N/O)cc2)OC(C)(Cc2ccccc2)C1 (stereo unspecified) | 92.6 | – | – | –
COC(=O)C1=C(c2ccc(/C(N)=N/O)cc2)OC(C)(Cc2ccccc2)C1 (stereo unspecified) | 4.7 | 2.3 | 30.7 | 70.6
CCCCS(=O)(=O)C1=C(c2ccc(/C(N)=N/O)cc2)OC(C)(Cc2ccccc2)C1 (stereo unspecified) | 63.5 | – | – | –
CCN(CC)C(=O)C1=C(c2ccc(/C(N)=N/O)cc2)OC(C)(Cc2ccccc2)C1 (stereo unspecified) | 60.4 | – | – | –
CC1(Cc2ccccc2)CC(C(=O)NC2CCCCC2)=C(c2ccc(/C(N)=N/O)cc2)O1 (stereo unspecified) | 43.6 | – | – | –
